In patent US7790697B2, “Compositions and methods for inhibiting the synthesis or expression of MMP-1” (Trustees of Dartmouth College, priority 2004, dated 2010):

Key:
[1] = system: MDA-231 cells in type I collagen gel; test: In vitro collagen gel destruction assay; type: cell-based; settings: empty vector MDA-231 cells, 36 hours
Experimental: In vitro Collagen Gel Destruction Assay. Collagen preparations were carried out on ice to prevent premature jelling. A solution of purified type I bovine collagen (Cohesion Technologies, Palo Alto, Calif.) was neutralized with a sterile 10× phosphate-buffered saline (pH 7.4), and 0.1 M NaOH. The solution of neutralized collagen (2 mg/mL) was mixed with an equivalent volume of cells suspended in serum free DMEM to yield a final concentration of 2×10^5 cells/mL in 1 mg/mL fibrillar collagen, and 1 mL of the collagen/cell mixture was added to each well of a six-well plate. After approximately 1 hour, the collagen jelled, and 1 mL of serum-free media was added on top of the gel. For some experiments, 25 μM ILOMASTAT® (CHEMICON®, Temecula, Calif.), 50 U/mL aprotinin (Sigma, St. Louis, Mo.), 1 μg/mL neutralizing MMP-1 antibody (MMP-1 ab-5; ONCOGENE™ Research Products, San Diego, Calif.), 1 μg/mL monoclonal FLAG® antibody (Sigma, St. Louis, Mo.), or 1% DMSO were added to the collagen before it jelled. After 36 hours of incubation at 37° C. the medium was removed from the top of collagen gels and weighed. The weight of media added at the start of the 37° C. incubation (1 gram) was subtracted from the total media weights to reveal the amount of media liberated by collagen gel destruction.
An in vitro collagen destruction assay was developed to determine whether the MMP-1 levels in MDA-231 cells with the empty vector were functionally capable of degrading a collagen matrix, and whether the shRNA-mediated reduction in MMP-1 was sufficient to change the invasive behavior of the cells. MDA-231 cells harboring either the empty vector or the MMP-1 shRNA were embedded in a solution of type I collagen (1 mL). The collagen was allowed to solidify at 37° C., and 1 mL of serum-free medium was layered on top of each gel. After 36 hours at 37° C., the medium was removed from each well and photographs were taken. No collagen was visible in wells containing MDA-231 cells with the empty vector. […] The medium removed from each well was weighed to quantitate the amount of medium liberated as the gel was destroyed. After 36 hours, approximately 1 mL (0.8±0.06 grams) of medium was liberated from the collagen gels containing the MDA-231 cells with the empty vector. […] Conversely, no medium (−0.01±0.03 grams) was liberated from collagen gels containing MDA-231 cells producing the MMP-1 shRNA. The slight decrease in the volume of medium recovered may be due to evaporation of the medium during the incubation period.

MDA-231 cells = test: Creation and subcloning of stable MDA-231 cell lines; type: cell-based; settings: PSUPER-retro plasmid, G418 selection and subcloning
Experimental: Transfection of NIH/3T3 and MDA-231 Cells. NIH/3T3 cells were transiently transfected with LIPOFECTAMINE™ 2000 (INVITROGEN™, Carlsbad, Calif.) along with 0.5 μg peGFP, 0.5 μg pCMV-MMP-1, and 2 μg PSUPER™-MMP-1 shRNA or PSUPER™ with no insert. Transfection efficiency was monitored using eGFP signal. Total cellular RNA was harvested 48 hours after transfection and analyzed for MMP-1 mRNA by real-time RT-PCR. MDA-231 cells were stably transfected in triplicate with LIPOFECTAMINE™ 2000 (INVITROGEN™, Carlsbad, Calif.) and 2 μg of the PSUPER™.Retro.Neo.GFP plasmid containing the MMP-1 shRNA, the scrambled sequence or just the empty vector. Stable cell lines were selected by growth in the presence of 1 mg/mL G418 (STRATAGENE®, La Jolla, Calif.). Individual, stable cell lines were isolated with cloning disks according to the manufacturer's instructions (PGC Scientifics, Frederick, Md.).
Three groups of stable MDA-231 cell lines were created. One group contained only the PSUPER™-retro plasmid, a second group contained a PSUPER™-retro plasmid with the scrambled shRNA sequence, and the third contained a PSUPER™-retro plasmid with the MMP-1 shRNA oligonucleotide.

MMP-1 protein = test: Western blot of MMP-1 protein in culture medium; type: cell-based, human; settings: empty vector MDA-231 cells in collagen gel; 50 U/mL; 24 hours
Experimental: Western Blot Analysis. MDA-231 cells were cultured in 1 mL serum-free DMEM/F12 medium in six-well plates in the presence or absence of a collagen gel, with or without aprotinin (50 U/mL; Sigma, St. Louis, Mo.). After 24 hours, medium was harvested, proteins precipitated with cold 10% trichloroacetic acid, and resuspended in 50 μL SDS loading buffer (PROMEGA®, Madison, Wis.). Following SDS-PAGE and transfer to a PVDF membrane (IMMOBILON™-P; MILLIPORE™, Bedford, Mass.), the membrane was incubated in a 5% milk, Tris-buffered saline solution with 0.1% TWEEN™ (milk TBST) for 1 hour. The membrane was probed with a MMP-1 polyclonal antibody (CHEMICON®, Temecula, Calif.) diluted 1:5000 in milk TBST overnight at 4° C. The membrane was washed three times with TBST, and a 1:2000 dilution of goat anti-rabbit horseradish peroxidase (HRP) conjugated antibody (CELL SIGNALING TECHNOLOGY®, Beverly, Mass.) in milk TBST was added for 60 minutes. The blot was washed three times with TBST, and HRP activity was detected with the WESTERN LIGHTNING® chemiluminescence reagent according to the manufacturer's instructions (PERKINELMER®, Boston, Mass.).
The three MMPs primarily responsible for degrading type 1 collagen are MMP-1, MMP-13, and the membrane bound MT1-MMP (Stamenkovic (2003) J. Pathol. 200:448-64). […]

For `CNC(=O)[C@H](Cc1c[nH]c2ccccc12)NC(=O)[C@@H](CC(=O)NO)CC(C)C` [ILOMASTAT®, ILOMASTAT, reference compound], the “medium liberated from collagen gels” value ([1]; 25 μM/gel inhibitor embedded) was −0.1±0.08 grams.

With “scrambled shRNA: Control shRNA with identical hairpin loop and linker, sequence not complementary to any human gene (SEQ ID NO:6) (AAGTGGAGGGACGTATGCA; the letters are possibly those of the target site)” the “growth and survival of stably transfected cells” value (MDA-231 cells) was “did not grow well, and did not survive the subcloning procedures”.

For aprotinin [reference compound], the “MMP-1 bands in medium / activation of proMMP-1 (western blot)” value (MMP-1 protein) was “only the higher molecular weight zymogen band” and the “medium liberated from collagen gels” value ([1]; 50 U/mL collagen embedded) was 0.01±0.1 grams.
